# Measured values taken from PubChem BioAssay AID1259407 (Chemical Carcinogenesis Research Information System (CCRIS), 2018).
# Calls of active or inactive are those of the source. How the calls were made is not given here.
# Test system: CCRIS mutagenicity, Ames/micronucleus/aberration tests
# Assay: CCRIS mutagenicity studies
# [1] = Test System: AMES SALMONELLA TYPHIMURIUM, Strain/Indicator: TA98, Metabolic Activation: NONE, Method: STANDARD PLATE
# [2] = Test System: AMES SALMONELLA TYPHIMURIUM, Strain/Indicator: TA98, Metabolic Activation: RAT, LIVER, S-9, AROCLOR 1254, Method: STANDARD PLATE
# [3] = Test System: AMES SALMONELLA TYPHIMURIUM, Strain/Indicator: TA100, Metabolic Activation: NONE, Method: STANDARD PLATE
# [4] = Test System: AMES SALMONELLA TYPHIMURIUM, Strain/Indicator: TA100, Metabolic Activation: RAT, LIVER, S-9, AROCLOR 1254, Method: STANDARD PLATE
# [5] = Test System: AMES SALMONELLA TYPHIMURIUM, Strain/Indicator: TA1535, Metabolic Activation: NONE, Method: STANDARD PLATE
# [6] = Test System: AMES SALMONELLA TYPHIMURIUM, Strain/Indicator: TA1535, Metabolic Activation: RAT, LIVER, S-9, AROCLOR 1254, Method: STANDARD PLATE
# [7] = Test System: AMES SALMONELLA TYPHIMURIUM, Strain/Indicator: TA1537, Metabolic Activation: NONE, Method: STANDARD PLATE
# [8] = Test System: AMES SALMONELLA TYPHIMURIUM, Strain/Indicator: TA1537, Metabolic Activation: RAT, LIVER, S-9, AROCLOR 1254, Method: STANDARD PLATE
# [9] = Test System: AMES SALMONELLA TYPHIMURIUM, Strain/Indicator: TA1538, Metabolic Activation: NONE, Method: STANDARD PLATE
# [10] = Test System: AMES SALMONELLA TYPHIMURIUM, Strain/Indicator: TA1538, Metabolic Activation: RAT, LIVER, S-9, AROCLOR 1254, Method: STANDARD PLATE
# [11] = Test System: AMES SALMONELLA TYPHIMURIUM, Strain/Indicator: TA98, Metabolic Activation: NONE, Method: PREINCUBATION
# [12] = Test System: AMES SALMONELLA TYPHIMURIUM, Strain/Indicator: TA98, Metabolic Activation: RAT, LIVER, S-9, AROCLOR 1254, Method: PREINCUBATION
# [13] = Test System: AMES SALMONELLA TYPHIMURIUM, Strain/Indicator: TA100, Metabolic Activation: NONE, Method: PREINCUBATION
# [14] = Test System: AMES SALMONELLA TYPHIMURIUM, Strain/Indicator: TA100, Metabolic Activation: RAT, LIVER, S-9, AROCLOR 1254, Method: PREINCUBATION
structure (smiles),measurement,setting,value
O=C(/C=C/c1ccc(O)c(O)c1)O[C@@H]1C[C@](O)(C(=O)O)C[C@@H](O)[C@H]1O,mutagenic call,"Test System: AMES SALMONELLA TYPHIMURIUM, Strain/Indicator: TA98, Metabolic Activation: HAMSTER, LIVER, S-9, AROCLOR 1254, Method: STANDARD PLATE",inactive; negative
same,mutagenic call,[1],inactive; negative
same,mutagenic call,[2],inactive; negative
same,mutagenic call,"Test System: AMES SALMONELLA TYPHIMURIUM, Strain/Indicator: TA100, Metabolic Activation: HAMSTER, LIVER, S-9, AROCLOR 1254, Method: STANDARD PLATE",inactive; negative
same,mutagenic call,[3],inactive; negative
same,mutagenic call,[4],inactive; negative
same,mutagenic call,"Test System: AMES SALMONELLA TYPHIMURIUM, Strain/Indicator: TA1535, Metabolic Activation: HAMSTER, LIVER, S-9, AROCLOR 1254, Method: STANDARD PLATE",inactive; negative
same,mutagenic call,[5],inactive; negative
same,mutagenic call,[6],inactive; negative
same,mutagenic call,"Test System: AMES SALMONELLA TYPHIMURIUM, Strain/Indicator: TA1537, Metabolic Activation: HAMSTER, LIVER, S-9, AROCLOR 1254, Method: STANDARD PLATE",inactive; negative
same,mutagenic call,[7],inactive; negative
same,mutagenic call,[8],inactive; negative
same,mutagenic call,"Test System: AMES SALMONELLA TYPHIMURIUM, Strain/Indicator: TA1538, Metabolic Activation: HAMSTER, LIVER, S-9, AROCLOR 1254, Method: STANDARD PLATE",inactive; negative
same,mutagenic call,[9],inactive; negative
same,mutagenic call,[10],inactive; negative
same,mutagenic call,"Test System: MOUSE LYMPHOMA, Strain/Indicator: L5178Y (TK+/TK-), Metabolic Activation: NONE, Method: SUSPENSION/PLATE",inactive; negative. reevaluation of results: negative
same,mutagenic call,"Test System: MOUSE LYMPHOMA, Strain/Indicator: L5178Y (TK+/TK-), Metabolic Activation: RAT, LIVER, S-9, AROCLOR 1254, Method: SUSPENSION/PLATE",active; positive. reevaluation of results: positive
O=[N+]([O-])N(c1ccccn1)S(=O)(=O)c1ccccc1,mutagenic call,[11],inactive; negative
same,mutagenic call,[12],inactive; negative
same,mutagenic call,[13],inactive; negative
same,mutagenic call,[14],inactive; negative
O=C(CCl)NCO,mutagenic call,"Test System: AMES SALMONELLA TYPHIMURIUM, Strain/Indicator: TA97, Metabolic Activation: NONE, Method: STANDARD PLATE",inactive; negative
same,mutagenic call,"Test System: AMES SALMONELLA TYPHIMURIUM, Strain/Indicator: TA97, Metabolic Activation: RAT, LIVER, S-9, AROCLOR 1254, Method: STANDARD PLATE",inactive; negative
same,mutagenic call,[11],inactive; negative
same,mutagenic call,[1],inactive; negative
same,mutagenic call,[12],inactive; negative
same,mutagenic call,[2],inactive; negative
same,mutagenic call,[13],inactive; negative
same,mutagenic call,[3],inactive; negative
same,mutagenic call,[14],inactive; negative
same,mutagenic call,[4],inactive; negative
same,mutagenic call,[5],inactive; negative
same,mutagenic call,[6],inactive; negative
same,mutagenic call,[7],inactive; negative
same,mutagenic call,[8],inactive; negative
same,mutagenic call,[9],inactive; negative
same,mutagenic call,[10],inactive; negative
Cc1ccc2c(c1)-c1ccccc1C2C (centres undefined),mutagenic call,[2],active; positive
same,mutagenic call,[4],active; positive
CC1(C)[C@H](C(=O)O[C@H](C#N)c2cccc(Oc3ccccc3)c2)[C@@H]1C=C(Cl)Cl,mutagenic call,"End Point: In vitro micronucleus, Test System: Human peripheral blood lymphocytes",active; positive. commercial product containing 10% alpha-cypermethrin in xylene emulsi
CCn1cc(C(=O)O)c(=O)c2cc(F)c(N3CCN(C)CC3)cc21,mutagenic call,"Test System: AMES SALMONELLA TYPHIMURIUM, Strain/Indicator: TA102, Metabolic Activation: NONE, Method: STANDARD PLATE",active; positive
same,mutagenic call,"Test System: CHINESE HAMSTER V-79, Strain/Indicator: V-79 (HPRT)/6-THIOGUANINE, Metabolic Activation: NONE",inactive; negative
COc1c2ccoc2cc2oc(=O)ccc12,mutagenic call,[1],inactive; negative
same,mutagenic call,"Test System: AMES SALMONELLA TYPHIMURIUM, Strain/Indicator: TA98, Metabolic Activation: RAT, LIVER, S-9, PHENOBARBITAL, Method: STANDARD PLATE",inactive; negative
